The text below walks through data of patent publication US6933322B2, “Substituted naphthylenes for the treatment of non-insulin dependent diabetes mellitus” (Wyeth, priority 2002, dated 2005).

The term melting point denotes the temperature of the solid-liquid transition. Molecule `O=S(=O)(Nc1ccc2c(OCc3ccc(-c4ccccn4)cc3)cccc2c1)C(F)(F)F` [Example 24, C,C,C-Trifluoro-N-[5-(4-pyridin-2-yl-benzyloxy)-naphthalen-2-yl]-methanesulfonamide] returned a melting point of 119 to 120 °C.

In the case of `O=S(=O)(Nc1ccc2c(OCc3coc(-c4ccc(Br)cc4)n3)cccc2c1)C(F)(F)F` [Example 86, N-{5-[2-(4-Bromo-phenyl)-oxazol-4-ylmethoxy]naphthalen-2-yl}C,C,C-trifluoromethanesulfonamide], the melting point lay in the range of 205 to 207 °C.

In the case of `O=S(=O)(Nc1ccc2c(OCc3noc(C45CC6CC(CC(C6)C4)C5)n3)cccc2c1)C(F)(F)F` [Example 60, N-[5-(5-Adamantan-1-yl-[1,2,4]oxadiazol-3-ylmethoxy)-naphthalen-2-yl]-C,C,C-trifluoro-methanesulfonamide], the melting point lay in the range of 60 to 62 °C.

`Cc1oc(-c2ccc(F)cc2)nc1COc1cccc2cc(NS(=O)(=O)C(F)(F)F)ccc12` [Example 82, N-{5-[5-methyl-2-(4-fluoro-phenyl)-oxazol-4-ylmethoxy]naphthalen-2-yl}C,C,C-trifluoromethanesulfonamide] yielded a melting point of 178 to 180 °C.

In turn, `COc1cccc(C2(COc3cccc4cc(NS(=O)(=O)C(F)(F)F)ccc34)N=CNO2)c1` (stereo not shown) [Example 62, N-{5-[5-(3-methoxy-phenyl)-[1,2,4]-oxadiazol-5-ylmethoxy)-naphthalen-2-yl}-C,C,C-trifluoro-methanesulfonamide] had a melting point of 138 to 140 °C.

With `CC(C)(C)c1ccc(-c2nc(COc3cccc4cc(NS(=O)(=O)C(F)(F)F)ccc34)co2)cc1` [Example 85, N-{5-[2-(4-tert-Butyl-phenyl)-oxazol-4-ylmethoxy]naphthalen-2-yl}C,C,C-trifluoromethanesulfonamide], the melting point is 165 to 167 °C.

Take `O=S(=O)(Nc1ccc2c(OCc3ccc4ccccc4c3)cccc2c1)C(F)(F)F` [Example 83, N-[5-(Naphthalen-2-ylmethoxy)-naphthalen-2-yl]-C,C,C-trifluoro-methanesulfonamide]: the melting point lay within 140 to 142 °C.

In turn, `O=S(=O)(Nc1ccc2c(OCc3coc(-c4ccc(Cl)cc4)n3)cccc2c1)C(F)(F)F` [Example 84, N-{5-[2-(4-Chloro-phenyl)-oxazol-4-ylmethoxy]naphthalen-2-yl}C,C,C-trifluoromethanesulfonamide] returned a melting point of 198 to 200 °C.

With `NC(=O)Nc1ccc2c(OCc3ccc(-c4ccc(Cl)cc4)cc3)cccc2c1` [Example 77, [5-(4′-Chloro-biphenyl-4-ylmethoxy)-naphthalen-2-yl]-urea], the melting point was 182 °C (dec.).

As to `COc1ccc(-c2ccc(Cl)cc2)cc1COc1cccc2cc(NS(=O)(=O)C(F)(F)F)ccc12` [Example 21, N-[5-(4′-Chloro-4-methoxy-biphenyl-3-ylmethoxy)-naphthalen-2-yl]-C,C,C-trifluoromethanesulfonamide], the melting point lay within 155 to 157 °C.

`N#Cc1ccc(C2(COc3cccc4cc(NS(=O)(=O)C(F)(F)F)ccc34)N=CNO2)cc1` (stereo not shown) [Example 61, N-{5-[5-(4-cyano-phenyl)-[1,2,4]-oxadiazol-5-ylmethoxy)-naphthalen-2-yl}-C,C,C-trifluoro-methanesulfonamide] showed a melting point of 184 to 185 °C.

For the molecule `O=S(=O)(Nc1ccc2c(OCc3ccc(-c4ccc(Cl)cc4)cc3)cccc2c1)C(F)(F)F` [Example 22, N-[5-(4′-Chloro-biphenyl-4-ylmethoxy)-naphthalen-2-yl]-C,C,C-trifluoromethanesulfonamide], the melting point was in the range of 131 to 133 °C.

Consider `O=S(=O)(Nc1ccc2c(OCc3csc(C4COc5ccccc5O4)n3)cccc2c1)C(F)(F)F` (stereo not shown) [Example 50, N-{5-[2-(2,3-Dihydro-benzo[1,4]dioxin-2-yl)-thiazol-4-ylmethoxy]-naphthalen-2-yl}-C,C,C-trifluoro-methanesulfonamide], for which the melting point lay within 183 to 185 °C.

`O=S(=O)(Nc1ccc2c(OCc3csc(-c4ccc(F)cc4)n3)cccc2c1)C(F)(F)F` [Example 45, C,C,C-Trifluoro-N-{5-[2-(4-fluoro-phenyl)-thiazol-4-ylmethoxy]-naphthalen-2-yl}-methanesulfonamide] registered a melting point of 170 to 173 °C.

Regarding `CC(C)(C)c1ccc(C2(COc3cccc4cc(NS(=O)(=O)C(F)(F)F)ccc34)N=CNO2)cc1` (stereo not shown) [Example 59, N-{5-[5-(4-tert-Butyl-phenyl)-[1,2,4]-oxadiazol-5-ylmethoxy)-naphthalen-2-yl}-C,C,C-trifluoro-methanesulfonamide], the melting point lay within 154 to 155 °C.

The molecule `O=S(=O)(Nc1ccc2c(OCc3coc(-c4ccccc4)n3)cccc2c1)C(F)(F)F` [Example 80, N-[5-(2-phenyl-oxazol-4-ylmethoxy)naphthalen-2-yl]C,C,C-trifluoromethanesulfonamide] gave a melting point of 195 to 197 °C.

On to `Cc1oc(-c2ccccc2)nc1COc1cccc2cc(NS(=O)(=O)C(F)(F)F)ccc12` [Example 79, N-[5-(5-methyl-2-phenyl-oxazol-4-ylmethoxy)naphthalen-2-yl]C,C,C-trifluoromethanesulfonamide], for which the melting point was in the range of 192 to 194 °C.

Turning to `COc1ccc(C2(COc3cccc4cc(NS(=O)(=O)C(F)(F)F)ccc34)N=CNO2)cc1` (stereo not shown) [Example 64, N-{5-[5-(4-methoxy-phenyl)-[1,2,4]-oxadiazol-5-ylmethoxy)-naphthalen-2-yl}-C,C,C-trifluoro-methanesulfonamide], the melting point is 146 to 148 °C.

Consider `O=S(=O)(Nc1ccc2c(OCc3nc4ccccc4s3)cccc2c1)C(F)(F)F` [Example 78, N-[5-(Benzothiazol-2-ylmethoxy)-naphthalen-2-yl]-C,C,C-trifluoro-methanesulfonamide], for which the melting point was in the range of 190 to 192 °C.

For the molecule `COc1ccc(-c2ccc(Cl)cc2)cc1COc1cccc2cc(NC(N)=O)ccc12` [Example 76, [5-(4′-Chloro-4-methoxy-biphenyl-3-ylmethoxy)-naphthalen-2-yl]-urea], the melting point was 200 °C (dec.).

The molecule `COc1ccc(-c2cc(COc3cccc4cc(NS(=O)(=O)C(F)(F)F)ccc34)ccc2F)cc1` [Example 26, C,C,C-Trifluoro-N-[5-(6-fluoro-4′-methoxy-biphenyl-3-ylmethoxy)-naphthalen-2-yl]-methanesulfonamide] showed a melting point of 132 to 133 °C.

`Cc1ccccc1-c1nc(COc2cccc3cc(NS(=O)(=O)C(F)(F)F)ccc23)co1` [Example 88, N-[5-[2-o-tolyl-oxazol-4-ylmethoxy)naphthalen-2-yl]C,C,C-trifluoromethanesulfonamide] had a melting point of 127 to 130 °C.

For the molecule `CC(C)(C)c1ccc(-c2nc(COc3cccc4cc(NS(=O)(=O)C(F)(F)F)ccc34)cs2)cc1` [Example 47, N-{5-[2-(4-tert-Butyl-phenyl)-thiazol-4-ylmethoxy]-naphthalen-2-yl}-C,C,C-trifluoro-methanesulfonamide], the melting point is 174 to 175 °C.

In turn, `O=S(=O)(Nc1ccc2c(OCc3cccc(-c4ccc(F)cc4)n3)cccc2c1)C(F)(F)F` [Example 42, C,C,C-Trifluoro-N-{5-[6-(4-fluoro-phenyl)-pyridin-2-ylmethoxy]-naphthalen-2-yl}-methanesulfonamide] yielded a melting point of 173 to 174 °C.

`O=S(=O)(Nc1ccc2c(OCc3csc(-c4ccccc4)n3)cccc2c1)C(F)(F)F` [Example 51, C,C,C-Trifluoro-N-[5-(2-phenyl-thiazol-4-ylmethoxy)-naphthalen-2-yl]-methanesulfonamide] registered a melting point of 89 to 99 °C.

Molecule `O=S(=O)(Nc1ccc2c(OCc3ccccc3-c3ccccc3)cccc2c1)C(F)(F)F` [Example 19, N-[5-(Biphenyl-2-ylmethoxy)-naphthalen-2-yl]-C,C,C-trifluoromethanesulfonamide] displayed a melting point of 119 to 121 °C.

Molecule `COc1ccc(-c2cccc(COc3cccc4cc(NS(=O)(=O)C(F)(F)F)ccc34)c2)cc1` [Example 20, C,C,C-Trifluoro-N-[5-(4′-methoxy-biphenyl-3-ylmethoxy)-naphthalen-2-yl]-methanesulfonamide] registered a melting point of 123 to 125 °C.

As to `Cc1c(COc2cccc3cc(NS(=O)(=O)C(F)(F)F)ccc23)cccc1-c1ccccc1` [Example 23, C,C,C-Trifluoro-N-[5-(2-methyl-biphenyl-3-ylmethoxy)-naphthalen-2-yl]-methanesulfonamide], the melting point is 124 to 125 °C.

Molecule `O=S(=O)(Nc1ccc2c(OCc3ccc(-c4ccc(Cl)cc4)cc3F)cccc2c1)C(F)(F)F` [Example 8, N-[5-(4′-Chloro-3-fluoro-biphenyl-4-ylmethoxy)-naphthalen-2-yl]-C,C,C-trifluoro-methanesulfonamide] returned a melting point of 151 to 153 °C.

Regarding `O=S(=O)(Nc1ccc2c(OCc3csc(-c4ccc(OC(F)(F)F)cc4)n3)cccc2c1)C(F)(F)F` [Example 55, C,C,C-Trifluoro-N-{5-[2-(4-trifluoromethoxy-phenyl)-thiazol-4-yl-methoxy]-naphthalen-2-yl}-methanesulfonamide], the melting point fell in the range of 131 to 132 °C.

As for `O=S(=O)(Nc1ccc2c(OCc3nc(-c4ccc(F)cc4)sc3Br)cccc2c1)C(F)(F)F` [Example 56, N-{5-[5-Bromo-2-(4-fluoro-phenyl)-thiazol-4-ylmethoxy]-naphthalen-2-yl}-C,C,C-trifluoromethanesulfonamide], the melting point was 139 to 140 °C.

Molecule `O=S(=O)(Nc1ccc2c(OCc3cccc(-c4ccc(C(F)(F)F)cc4)n3)cccc2c1)C(F)(F)F` [Example 43, C,C,C-Trifluoro-N-{5-[6-(4-trifluoromethyl-phenyl)-pyridin-2-ylmethoxy]-naphthalen-2-yl}-methanesulfonamide] had a melting point of 180 to 182 °C.

For `NC(=O)Nc1ccc2c(OCc3ccccc3-c3ccccc3)cccc2c1` [Example 74, [5-(Biphenyl-2-ylmethoxy)-naphthalen-2-yl]-urea], the melting point lay in the range of 159 to 161 °C.

On to `O=S(=O)(Nc1ccc2c(OCc3ccc(-c4ccc(F)cc4)cc3F)cccc2c1)C(F)(F)F` [Example 7, N-[5-(3,4′-Difluoro-biphenyl-4-ylmethoxy)-naphthalen-2-yl]-C,C,C-trifluoro-methanesulfonamide], for which the melting point fell in the range of 134 to 136 °C.
